Experimental data published in patent US10508123B2, “Polymorphs” (Vectura Limited, priority 2015, dated 2019).
Blank lines part the entries; values can stand above or below the molecule they belong to.

How the values were obtained:
[1] = Competitive slurrying experiments (solid form by XRPD after one week); type: physicochemical
Method: 10 mg (+/−1 mg) each of the Form I, Form II, Form III, 1,2-dimethoxtethane solvate and the hydrate of (S)-3-(3-(1-methyl-2-oxo-5-(pyrazolo[1,5-a]pyridine-3-yl)-1H-imidazo[4,5-b]pyridine-3(2H)-yl)piperidin-1-yl)-3-oxopropanenitrile was added to each of twelve vials. The solvent systems used had been pre-saturated with (S)-3-(3-(1-methyl-2-oxo-5-(pyrazolo[1,5-a]pyridine-3-yl)-1H-imidazo[4,5-b]pyridine-3(2H)-yl)piperidin-1-yl)-3-oxopropanenitrile by shaking a slurry of Form I at the relevant temperature for 16 hours and then passing through a 1 μm glass filter.
The resulting slurries were agitated at the temperature shown for a period of one week. The solids present were then isolated by filtration, air dried and characterised by XRPD.

[2] = Solubility of the compound in water (remark in the slurrying results); type: physicochemical

- XRPD characterisation ([1]; vial 1, water, 5 °C, slurry of Form I, II, III, 1,2-dimethoxyethane solvate and hydrate agitated one week, poor recovery hampered interpretation): Form II/Hydrate*
- XRPD characterisation ([1]; vial 2, water, 25 °C, mixed-form slurry, one week): Form II/Form III/Hydrate
- XRPD characterisation ([1]; vial 3, water, 50 °C, mixed-form slurry, one week): Form II
- XRPD characterisation ([1]; vial 4, MEK, 5 °C, mixed-form slurry, one week): Form II
- XRPD characterisation ([1]; vial 5, MEK, 25 °C, mixed-form slurry, one week): Form II
- XRPD characterisation ([1]; vial 6, MEK, 50 °C, mixed-form slurry, one week): Form II
- XRPD characterisation ([1]; vial 7, EtOAc, 5 °C, mixed-form slurry, one week): Form II/1,2-dimethoxyethane solvate
- XRPD characterisation ([1]; vial 8, EtOAc, 25 °C, mixed-form slurry, one week): Form II/1,2-dimethoxyethane solvate
- XRPD characterisation ([1]; vial 9, EtOAc, 50 °C, mixed-form slurry, one week): Form II
- XRPD characterisation ([1]; vial 10, IPA, 5 °C, mixed-form slurry, one week): Form II
- XRPD characterisation ([1]; vial 11, IPA, 25 °C, mixed-form slurry, one week): Form II/1,2-dimethoxyethane solvate
- XRPD characterisation ([1]; vial 12, IPA, 50 °C, mixed-form slurry, one week): Form II
- solubility in water [2]: poor solubility
SMILES: Cn1c(=O)n([C@H]2CCCN(C(=O)CC#N)C2)c2nc(-c3cnn4ccccc34)ccc21 [Compound (I), (S)-3-(3-(1-methyl-2-oxo-5-(pyrazolo[1,5-a]pyridine-3-yl)-1H-imidazo[4,5-b]pyridine-3(2H)-yl)piperidin-1-yl)-3-oxopropanenitrile]

SMILES: Cn1c(=O)n([C@H]2CCCN(C(=O)CC#N)C2)c2nc(-c3cnn4ccccc34)ccc21 [Form I, (S)-3-(3-(1-methyl-2-oxo-5-(pyrazolo[1,5-a]pyridine-3-yl)-1H-imidazo[4,5-b]pyridine-3(2H)-yl)piperidin-1-yl)-3-oxopropanenitrile]
- form visible in the isolated solids ([1]; all vials, except one of the experiments in water): No Form I or Form III material was visible

- thermodynamic stability among the three anhydrous forms ([1]; at all three temperatures evaluated (5, 25, 50 °C)): most thermodynamically stable
- thermodynamic stability compared to the other polymorphic forms or the solvates and hydrates ([1]; at temperatures up to 50 °C): greater thermodynamic stability
SMILES: Cn1c(=O)n([C@H]2CCCN(C(=O)CC#N)C2)c2nc(-c3cnn4ccccc34)ccc21 [Form II, (S)-3-(3-(1-methyl-2-oxo-5-(pyrazolo[1,5-a]pyridine-yl)-1H-imidazo[45-b]pyridine-3(2H)-yl)piperidin-1-yl)-3-oxopropanenitrile]
- thermodynamic stability compared to the Form 1 and Form III polymorphs ([1]; competitive slurrying experiments): surprisingly advantageous thermodynamic stability

- stability of the hydrate relative to anhydrous Form II ([1]; in organic solvents): less stable than the anhydrous Form II
- conversion of the hydrate in the slurry ([1]; water at 50 °C, not at 25 °C or 5 °C): complete conversion to Form II
SMILES: Cn1c(=O)n([C@H]2CCCN(C(=O)CC#N)C2)c2nc(-c3cnn4ccccc34)ccc21 [Hydrate I, (S)-3-(3-(1-methyl-2-oxo-5-(pyrazolo[1,5-a]pyridine-3-yl)-1H-imidazo[4,5-b]pyridine-3(2H)-yl)piperidin-1-yl)-3-oxopropanenitrile]
